Source: patent US9205113B2, “Synthetic triterpenoids and methods for modulating stem/progenitor cell gene expression” (Trustees of Dartmouth College, priority 2012, dated 2015)

Assays:
newborn mouse calvaria = assay: histologic analysis of calvarial organ cultures (H&E, toluidine blue): chondrogenesis; assay type: cell-based; settings: 200 nM, 7 days; for induction of chondrogenesis in newborn mouse calvaria (histology): H&E or toluidine blue sections; for formation of proteoglycans such as aggrecan (metachromatic toluidine blue staining): calvarial sections
Method: (§1) Calvarial Organ Cultures. Details have been published previously (Garrett, et al. (2003) J. Clin. Invest. 111:1771-82). Calvaria were cultured in BGJ medium supplemented with 1 mg/mL of bovine serum albumin (Cohn fraction V), 100 U/ml each of penicillin/streptomycin, and 0.292 mg/mL of glutamine. On Day 1, the calvaria were treated with synthetic oleanane triterpenoids. On Day 4, the medium was replaced with fresh medium, again containing synthetic oleanane triterpenoids. On Day 7, calvaria were collected, either stored at −80° C. for further RNA analysis or fixed in 10% buffered formalin for 24 hours and transferred to 80% ethanol for histologic analysis.
(§2) Histologic Analysis of Calvaria. After fixation for hours, calvaria were decalcified in EDTA, embedded in paraffin and sectioned at 4 μm. Sections were stained either with modified hematoxylin and eosin (H&E) or with toluidine blue (1% in 70% ethanol for 20 minutes, followed by destaining in 70%, 90% and 100% ethanol for 15 seconds), placed in xylene twice, and then mounted. Procedures for immunofluorescence staining have been described (Medici, et al. (2010) Nat. Med. 74:537-45). Primary antibodies against collagen type II (AB746P, Millipore), were used at 1:100 dilution; ALEXFLUOR secondary antibodies (Invitrogen) at 1:200 dilution. For nuclear staining, To-PRO-3 Iodide (T3605, Invitrogen) was used.
For the results described here, more than 300 individual calvarial organ cultures were performed. […] No new cartilage was seen on control sections stained with either H&E or toluidine blue. […] With toluidine blue, bone stained orthochromatically (blue).
With respect to dose-response to either synthetic oleanane, 200 nM appeared to be optimal. Treatment with 50 nM triterpenoid yielded only marginal induction of chondrogenesis, while treatment with 500 nM synthetic oleanane gave somewhat variable results. Treatment with […] triterpenoid was invariably toxic to the organ cultures.

aggrecan = assay: Western blot in bone marrow stem cell cultures: aggrecan; assay type: cell-based; settings: 100 nM for 7 days, human BMSC cultures, not detectable in control
Method: (§3) Bone Marrow-Derived Stem Cell Culture and Immunoblotting. Human bone marrow-derived stromal cells, which contain a population of responsive mesenchymal stem cells (ScienCell Research Laboratories), were grown in mesenchymal stem cell medium (ScienCell Research Laboratories). Cells were serum-starved 24 hours prior to all experimental conditions. Immunoblotting was performed using the following antibodies at concentrations (and using protocols) recommended by the respective manufacturers: SOX9 (sc-20095, Santa Cruz Biotechnology), collagen IIα1 (sc-7764 and sc-28887, Santa Cruz), aggrecan (ab3778 and ab36861, Abcam), BMP-2 (ab14933, Abcam), phospho-Smad5 (9516, Cell Signaling Technology), Smad5 (9517, Cell Signaling Technology), β-actin (A1978, SigmaeAldrich). HRP-conjugated IgG TRUEBLOT reagents (18-8814, eBioscience) were used at a dilution of 1:1000.
(§4) Further studies on mechanism were pursued in human bone marrow stem cell (BMSC) cultures. […] BMP-2 is known to induce chondrogenic lineage development of human mesenchymal stem cells in culture (Schmitt, et al. (2003) Differentiation 71:567-77).

SOX9 [1] = assay: Western blot in bone marrow stem cell cultures: SOX9; assay type: cell-based; settings: 100 nM for 7 days, human BMSC cultures, not detectable in control
Method: as §3, §4

SOX9 [2] = assay: quantitative RT-PCR of calvarial organ cultures: SOX9; assay type: cell-based; settings: 7 days of culture, newborn mouse calvaria
Method: as §1
(§5) Quantitative RT-PCR (gRT-PCR). Detailed procedures for qRT-PCR are known in the art (Lee, et al. (2006) Biochem. Pharmacol. 72:332-43). In brief, 30 ng of RNA was reverse transcribed to cDNA using the random primers and Applied Biosystems' High Capacity cDNA Archive Kit in a 96-well format MASTERCYCLER Gradient from EPPENDORF. Subsequently, cDNA was amplified with ASSAYS-ON-DEMAND Products containing two gene specific primers and one TAQMAN MGB probe (6-FAM dye-labeled) using the TAQMAN Universal PCR Master Mix in an ABI PRISM 7000 Sequencing Detector (Applied Biosystems). All labeled primers were obtained from Applied Biosystems.
(§6) In addition to the histologic analysis of the calvarial cultures, mechanistic aspects of the action of both CDDO-EA and CDDO-Im were investigated in the calvaria. After 7 days of culture, RNA was isolated from the calvaria and quantitative RT-PCR analysis was performed for more than 15 different markers, including: SOX9, collagen IIα1, all three isoforms of TGF-β, BMPs 2 and 4, BMP receptor II, Smads 3, 4, 6, and 7, tissue inhibitors of metalloproteinases (TIMP-1 and TIMP-2), and matrix metalloproteinase-9 (MMP-9). […] The 50 nM dose was generally ineffective. In contrast, both triterpenoids were strong inhibitors of the expression of MMP-9; CDDO-EA (200 nM) caused almost 80% inhibition of the expression of this metalloproteinase, which is known to be involved in the degradation of cartilage (Shinoda, et al. (2008) J. Biol. Chem. 283:24632-9).

collagen type 2 = assay: Western blot in bone marrow stem cell cultures: collagen type 2; assay type: cell-based; settings: 100 nM for 7 days, human BMSC cultures, not detectable in control
Method: as §3, §4

COL2A1 = assay: quantitative RT-PCR of calvarial organ cultures: COL2A1; assay type: cell-based; settings: 7 days of culture, newborn mouse calvaria
Method: as §1, §5, §6

[3] = test system: type II collagen (collagen IIα1); assay: immunohistochemistry of calvarial organ cultures: type II collagen; assay type: cell-based, mouse; settings: 200 nM, calvarial sections, not seen in control sections
Method: as §1
as §2, with “used. […]” for “used.”

Compound	induction of chondrogenesis in newborn mouse calvaria (histology) (newborn mouse calvaria)	formation of proteoglycans such as aggrecan (metachromatic toluidine blue staining) (newborn mouse calvaria)	expression of chondrocyte marker aggrecan (Western blot) (aggrecan)	expression of chondrocyte marker SOX9 (Western blot) (SOX9 [1])	SOX9 expression (quantitative RT-PCR) (SOX9 [2]; 50 nM)	SOX9 expression (quantitative RT-PCR) (SOX9 [2]; 200 nM)	SOX9 expression (quantitative RT-PCR) (SOX9 [2]; 500 nM)	expression of chondrocyte marker collagen type 2 (Western blot) (collagen type 2)	COL2A1 expression (quantitative RT-PCR) (COL2A1; 50 nM)	COL2A1 expression (quantitative RT-PCR) (COL2A1; 200 nM)	COL2A1 expression (quantitative RT-PCR) (COL2A1; 500 nM)	formation of type II collagen (collagen IIα1), immunohistochemistry [3]
CCNC(=O)[C@]12CCC(C)(C)C[C@H]1[C@H]1C(=O)C=C3[C@@]4(C)C=C(C#N)C(=O)C(C)(C)[C@@H]4CC[C@@]3(C)[C@]1(C)CC2 [CDDO-EA]	marked ability to induce chondrogenesis	induce the formation of proteoglycans	induced expression	induced expression	1.64 ± 0.17	2.62 ± 0.33	3.12 ± 0.38	induced expression	4.12 ± 1.78	5.45 ± 1.13	3.18 ± 0.71	induced the formation of type II collagen
CC1(C)CC[C@]2(C(=O)n3ccnc3)CC[C@]3(C)[C@H](C(=O)C=C4[C@@]5(C)C=C(C#N)C(=O)C(C)(C)[C@@H]5CC[C@]43C)[C@@H]2C1 [CDDO-Im, 1-(2-cyano-3,12-dioxooleana-1,9(11)-dien-28-oyl) imidazole]	marked ability to induce chondrogenesis	induce the formation of proteoglycans	induced expression	induced expression	1.26 ± 0.08	1.33 ± 0.05	1.83 ± 0.13	induced expression	1.45 ± 0.09	1.32 ± 0.23	1.72 ± 0.39	induced the formation of type II collagen
